Values belong to the molecule of their own block, whether it stands above or below them.
What was measured:
[1] = tested on: AUUUA RNA / RNA binding protein (K562 extract); assay: Exploratory library screen, filter binding, 32P-labeled AUUUA RNA and K562 extract; settings: 10 μM
Excerpt: FIG. 4 is a graph of the amount of radioactively labeled RNA retained on a filter (expressed in percent of the amount of RNA retained on a filter in a reference binding solution) following loading of various binding solutions. All of the binding solutions contained radioactively labeled AUUUA RNA either alone or including various other components. The first column represents a binding solution without RNA binding protein. The remaining columns represent binding solution containing RNA binding protein (K562 extract). Columns 3 through 8 correspond to binding solutions including the indicated test compound.
(§1) a. Filter binding. Filter binding involves trapping interacting molecules on a filter while non interacting molecules pass through the filter. This procedure is known to those of skill in the art. For example, prewet nitrocellulose filters are equilibrated in 1× binding buffer. The binding reaction is then applied to the filter by vacuum filtration to remove unbound RNA. The filter is washed in 1× binding buffer, scintillation cocktail is added and the amount of protein-bound RNA is determined by scintillation counting.
(§2) All binding reactions were performed in 96-well v-bottom plates in a final volume of 10 μl. The assays were constituted and performed as described below. Specifically, assays were performed by (1) forming a binding solution including RNA molecules, 7.5 mM BTP at pH 8.5, 10 mM KCl, 5 mM MgCl2, 0.2 mM DTT, and 10% glycerol, (2) heating the binding solution to denature the RNA molecules, (3) cooling the binding solution, (4) adding RNA binding proteins to the binding solution, (5) loading the binding solution onto a filter, and (6) detecting the amount RNA retain on the filter. It is preferred that the samples be loaded on to a filter of either pure nitrocellulose or a mixed cellulose ester (MCA). It is also preferred that the filters have a 0.2μ pore size, although filters with a 0.45μ pore size will also bind the RNA/RNA binding protein complex. It is preferred that, prior to loading the binding solution onto a filter, the volume is increased. For this purpose, it is preferred that the dilution solution has the same buffer components as the binding solution except lacking the density agent. For a 10 μl volume it is preferred that the final volume be about 100 μl. It is also preferred that the binding solution be loaded onto the filter under vacuum. It is also preferred that the filter is washed twice prior to detecting the amount of RNA retained on the filter. Preferably the wash solution had the same composition as the dilution solution. However, TE (pH 8.0), PBS, or TCA can also be used as wash solutions. In most of the assays described below, the RNA molecules were labeled with ^32 P.
The library was initially screened at 10 μM against ^32 P-labeled AUUUA RNA. Several methods of introducing the compounds into the binding reaction were tested. Initially the compounds were co-incubated with the RNA and protein, producing modest results. Next, preincubation with either the protein extract or the RNA was tried with improved results.
Seventeen compounds were chosen for further analysis at 100 nM, 1 μM and 10 μM using both AUUUA and IRE RNAs based on the results from three screening efforts (Exps. 29-31). Table 2 summarizes the results from these compounds at 10 μM. The results are also shown graphically in FIG. 4. […] Compounds D9 and H2, chosen as negative controls from the initial screening, continued to have no effect in the dose dependent screen (Exp. 33) and were identified as vehicle controls.
A 96 member random compound library was screened with the disclosed high throughput assay. The compounds were initially screened at 10 μM against ^32 P-labeled AUUUA RNA. […] Seventeen compounds were chosen for further analysis at 100 nM, 1 μM and 10 μM using both AUUUA and IRE RNA molecules to determine if any selectivity of the compounds could be detected. […]

TNF-α production = settings: previously shown; cited from earlier work
[2] = tested on: IRE RNA / RNA binding protein (K562 extract); assay: High throughput filter binding assay, labeled IRE RNA and K562 protein extract; settings: hemin 1 to 100 μM; FeCl3 and desferroxiamine 1 μM to 1 mM
Protocol: as §1
as §2, with “It is also preferred that the binding solution be loaded onto the filter under vacuum. It is also preferred that the filter is washed twice prior to detecting the amount of RNA retained on the filter. Preferably the wash solution had the same composition as the dilution solution. However, TE (pH 8.0), PBS, or TCA can also be used as wash solutions. In most of the assays described below, the RNA molecules were labeled with ^32 P.” left out
Binding assays were performed with wild-type IRE RNA and K562 protein extract in the presence of sources of iron or iron chelators to determine the ability of the filter assay to detect the modulation of binding interactions by small molecules. […] The reactions were analyzed by gel shifts to visualize the results of the filter assay. […]

[3] = tested on: human CD45 5' UTR / RNA binding proteins (K562 cell line protein); assay: Gel shift specificity (competition), labeled CD45 5' UTR and K562 protein; settings: 100 and 1,000 fold molar excess of unlabeled RNA
Excerpt: (§3) A primer pair was designed from the 5' end of the UTR and a 3' primer encompassing nucleotide +1 with the use of the OLIGO program. Similar primers encompassing the same criteria can be designed either manually without the use of this program, or using another similar oligonucleotide design program. In addition, the 5' primer contained 24 nucleotides at the 5' end encoding for the T7 promoter. Clones containing the above sequences were generated by rtPCR from total RNA obtained from the K562 lymphoblastoma cell line. The clones were restriction mapped and analyzed by gel electrophoresis to confirm their identity.
(§4) PCR products generating a single band (in the undigested lanes) were then used for in vitro transcription of labeled RNA using Ambion's Maxiscript Kit. The labeled transcripts were used in the RNA binding protein detection assay described above. The binding solutions containing the labeled RNA were incubated with 2 μg of protein isolated from the same cell from which the rtPCR product was generated, and the products were resolved on a non-denaturing gel. […] In this experiment, a 100 and 1,000 fold molar excess of unlabeled identical RNA or the same excess of different RNA are added to the binding reactions.

[4] = tested on: human C4b-binding protein 5' UTR / RNA binding proteins (K562 cell line protein); assay: Gel shift specificity (competition), labeled C4b-binding protein 5' UTR and K562 protein; settings: 100 and 1,000 fold molar excess of unlabeled RNA
Excerpt: as §3, §4

labeled AUUUA RNA retained on filter, percent of RNA&K562 reference, Experiment #29 ([1]; RNA&K562 = 100): 114.53%
labeled AUUUA RNA retained on filter, percent of RNA&K562 reference, Experiment #30 ([1]; RNA&K562 = 100): 66.94%
labeled AUUUA RNA retained on filter, percent of RNA&K562 reference, Experiment #31 ([1]; RNA&K562 = 100): 127.28%
labeled AUUUA RNA retained on filter, percent of RNA&K562 reference, Experiment #33 ([1]; RNA&K562 = 100): 135.24%
Avg. % (labeled AUUUA RNA retained on filter) ([1]; mean of Experiments #33, #31, #30, #29): 111.00%
Molecule: CC(=NN=C(N)N)c1cc(NC(=O)CCCCCCCCC(=O)Nc2cc(C(C)=NN=C(N)N)cc(C(C)=NN=C(N)N)c2)cc(C(C)=NN=C(N)N)c1 [Compound G10, CNI-1493]
change in counts across the experiments ([1]; 4 experiments): substantial increase in counts in 3 of the 4 experiments
post-transcriptional inhibition of TNF-α production (TNF-α production): post-transcriptionally inhibit TNF-α production

Molecule: CC(=O)N(O)CCCCCNC(=O)CCC(=O)N(O)CCCCCNC(=O)CCC(=O)N(O)CCCCCN [Desferroxiamine, desferroxiamine]
modulation of IRE/protein binding by small molecules [2]: did not change the amount IRE/protein complex formed

Molecule: [Cl][Fe]([Cl])[Cl] [FeCl3]
modulation of IRE/protein binding by small molecules [2]: concentration-dependent inhibition of binding

Molecule: hemin
modulation of IRE/protein binding by small molecules [2]: concentration-dependent inhibition of binding

B1: CD45: 5' UTR RNA of human CD45, SEQ ID NO:4 (nucleic acid)
chain: CUGACAUCAUCACCUAGCAGUUCAUGCAGCUAGCAAGUGGUUUGUUCUUAGGGUAACAGAGGAGGAAAUUGUUCCUCGUCUGAUAAGACAACAGUGGAGAAAGGACGCAUGCAGUUUCUUAGGGACACGGCUGACUUCCAGAUAUGACCAUGUAUUUGUGGCUUAAACUCUUGG
competition of complex formation by unlabeled RNA [3]: concentration dependent inhibition of complex formation

B2: C4b-binding protein: 5' UTR RNA of human C4b-binding protein alpha chain, SEQ ID NO:3 (nucleic acid)
chain: GCUGCUUUAUUUCUGCUGUUAAUCAUUCAUUGGGCCCGUCAAAAGUUUCUGCCCAUCUAUUUCCAUCAACCGUCCUUGACCAGCCAACCACAUGGCUGAAAUUCAGG
modifications: expressed or natural sequence
competition of complex formation by unlabeled RNA [4]: concentration dependent inhibition of complex formation

Reference: patent US5859227A, “RNA sequences which interact with RNA-binding proteins” (Bearsden Bio, Inc., priority 1997, dated 1999)
